From patent publication US11919856B2, “Compounds” (UCL BUSINESS LTD, priority 2018, dated 2024)
pEC50, pIC50: −log10 of the molar value. “Also recorded” adds a separate entry of the source. Where two headings read alike, the source gives them in different places.

Legend:
[1] = target: T1, Z-alpha-1-antitrypsin (Z-A1AT) (Homo sapiens, UniProt P01009, E366K/V237A); assay: Inhibition of Z-alpha-1-antitrypsin polymerisation TR-FRET assay; assay type: biochemical; details: mean, 5 nM Z-A1AT, 72 hours at 37° C.
T1 construct: Z-alpha-1-antitrypsin was purified from human plasma; from tissue; host or cells: human plasma of ZZ homozygous donors
T1 sequence (P01009 25-418 V237A/E366K): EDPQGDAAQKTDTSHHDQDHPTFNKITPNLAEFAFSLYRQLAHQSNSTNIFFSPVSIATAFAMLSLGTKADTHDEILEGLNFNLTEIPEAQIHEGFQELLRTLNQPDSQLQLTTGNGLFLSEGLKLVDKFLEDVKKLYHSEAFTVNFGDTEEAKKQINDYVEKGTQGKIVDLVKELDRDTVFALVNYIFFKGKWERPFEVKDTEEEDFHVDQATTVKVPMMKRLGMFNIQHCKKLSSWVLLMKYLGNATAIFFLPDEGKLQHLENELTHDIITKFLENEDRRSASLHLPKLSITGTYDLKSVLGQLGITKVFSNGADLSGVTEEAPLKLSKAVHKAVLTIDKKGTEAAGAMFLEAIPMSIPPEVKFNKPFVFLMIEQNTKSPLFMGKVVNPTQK
Text: The potencies of the compounds of the invention for inhibition of Z-alpha-1-antitrypsin (Z-A1AT) polymerisation can be determined by a time-resolved fluorescence energy transfer (TR-FRET) assay performed on purified Z-A1AT as described herein. […] Mean activity data for the assay described below for compounds 1-4:
Inhibition of Z-Alpha-1-Antitrypsin Polymerisation Assay Protocol
Z-alpha-1-antitrypsin was purified from human plasma of donors homozygous for the Z-A1AT form. The purification was performed according to a published protocol (Lomas et al. Biochemistry 1993; 32:500-508) involving ammonium sulphate precipitation, thiol exchange fractionation, and anion exchange fractionation.
Purified Z-A1AT was diluted to 5 nM in PBS buffer with 0.01% Tween-20 and mixed with different concentrations of inhibitor compounds dissolved in DMSO, in 384-well assay plates. Following incubation for 72 hours at 37° C., the amount of Z-A1AT polymer was detected using a time-resolved fluorescence resonance energy transfer (TR-FRET) assay format, by adding an antibody detection mix to the assay plates. The detection mix contained an A1AT-polymer specific monoclonal antibody (Miranda et al. Hepatology 2010; 52: 1078-1088), Terbium-labelled anti-mouse antibody, a polyclonal rabbit anti-A1AT antibody, and an Alexa488-labelled anti-rabbit antibody. TR-FRET data were normalised to controls (DMSO vehicle control giving 0% inhibition, saturating concentrations of an active compound giving 100% inhibition), and IC50 values were derived by fitting 4-parameter logistic curves to the normalised data.
An antibody-based time-resolved fluorescence resonance energy transfer (TR-FRET) assay was used to monitor the polymerisation of 5 nM Z α1-antitrypsin following incubation with varying concentrations of compounds at 37° C. for 72 hours. This assay used the 2C1 monoclonal antibody that is specific to pathological polymers of α1-antitrypsin (Miranda et al. Hepatology 2010; 52: 1078-1088), a polyclonal antibody that binds to all forms of α1-antitrypsin, an anti-mouse IgG fluorescence donor (Eu-W1024) and an anti-rabbit IgG acceptor (APC).

CHO-TET-ON-Z-A1AT cells = assay: Cell viability assay with ER stressor tunicamycin; assay type: cell-based; details: 10 μM, versus cells expressing wild-type M α1-antitrypsin
Experimental: To investigate the ability of Compound 1 to protect cells from sensitisation to a secondary toxin, Z α1-antitrypsin expression was induced in CHO-TET-ON-Z-A1AT cells in the presence or absence of 10 μM Compound 1 before exposure to varying concentrations of the ER stressor tunicamycin. In a cell viability assay, cells expressing wild-type M α1-antitrypsin were less sensitive to tunicamycin than cells expressing Z α1-antitrypsin.

Z α1-antitrypsin polymer = assay: Liver polymer levels in Z α1-antitrypsin transgenic mice (2C1 staining); assay type: in vivo, human; details: 100 mg/kg three times a day for 20 days
Experimental: Since Compound 1 blocks polymer formation in cells the effect of dosing Compound 1 on liver polymer levels was explored. It has recently been shown that Z α1-antitrypsin polymers formed in CHO-TET-ON-Z-A1AT and ZZ-iPSC-hepatocytes are cleared from cells with a t½ of between 8 and 48 hours depending on whether they partition to the soluble or insoluble fractions. […] Compound 1 was therefore dosed at 100 mg/kg three times a day as above for 20 days. On days 15 and 21 of dosing, changes of monomeric Z α1-antitrypsin plasma samples were determined as above, and increases of 7- to 8-fold over the pre-dosing baseline levels were observed, similar to the effect in animals dosed for 3 or 6 days, consistent with sustained target engagement through the dosing period. Liver polymer levels were investigated by staining with 2C1 anti-polymer monoclonal antibody and were scored blinded either by a pathologist or by quantification using an algorithm to measure all areas of positive staining. There was no difference observed in total liver polymer load via manual or quantitative scoring.
To investigate whether there is a subpopulation of polymer in the liver that was responding to compound over the time frame of the experiment, areas of staining were divided into low, medium and high intensity regions and scored separately for response to compound. […]

Z α1-antitrypsin = Z α1-antitrypsin (Homo sapiens, UniProt P01009, E366K/V237A); assay: Secretion of Z α1-antitrypsin from CHO-TET-ON-Z-A1AT cells (immunoassay of supernatant); assay type: cell-based; set-up: expressed in transfected cells; host or cells: CHO Tet-On (CHO-K1) cells, doxycycline-induced
Sequence of Z α1-antitrypsin (P01009 25-418 V237A/E366K): as above
Experimental: CHO Tet-On cells that conditionally express Z α1-antitrypsin (Ordóñez A et al. Hepatology 2013; 57(5):2049-60.) were simultaneously treated with 0.5 μg/mL […] and various concentrations of compounds for 48 hours in 6 well plates. Cells without doxycycline or treated with 1% v/v DMSO acted as controls. The cells were lysed and intracellular Z α1-antitrypsin polymer was evaluated by ELISA sandwich with the 2C1 monoclonal antibody (Miranda et al. Hepatology. 2010; 52:1078-88). Newly synthesised α1-antitrypsin was evaluated by growing cells induced to express Z α1-antitrypsin in DMEM without methionine (Met) and cysteine (Cys) for 1 h and then labelling with 1.3 MBq of ^35S-Met/Cys for 15 min. The cells were then rinsed and incubated in chase medium containing an excess of unlabeled Met and Cys for 0, 2 and 6 h. After the chase period, the medium was collected and cells were harvested. α1-Antitrypsin from the medium and cell lysates was immunoprecipitated with a polyclonal α1-antitrypsin antibody or the 2C1 monoclonal antibody that detects polymers by splitting each sample in two equal parts. Radiolabelled proteins were re-suspended in SDS loading buffer, boiled for 5 min, separated by 10% w/v acrylamide SDS-PAGE, and quantified by autoradiography.
Its ability to block Z α1-antitrypsin polymerisation in the ER during folding was assessed by adding Compound 1 to CHO-TET-ON-Z-A1AT cells (Ordóñez et al. Hepatology. 2013; 57(5):2049-60) with simultaneous induction of Z α1-antitrypsin expression using doxycycline. […] To investigate whether in addition to blocking polymerisation, Compound 1 was also able to increase secretion of Z α1-antitrypsin, Z α1-antitrypsin expression was induced in CHO-TET-ON-Z-A1AT cells, Compound 1 was added, and the total Z α1-antitrypsin in the supernatant was measured by immunoassay after 6 hours.

CCC[C@@H](NC(=O)c1cccc2c1CC(=O)N2)[C@@H](O)c1cccc(F)c1C [Compound 1, N-[(1S,2R)-1-(3-fluoro-2-methylphenyl)-1-hydroxypentan-2-yl]-2-oxo-2,3-dihydro-1H-indole-4-carboxamide]
pIC50 [1]: 8.30
sensitivity to tunicamycin in cell viability assay (CHO-TET-ON-Z-A1AT cells): restored sensitivity
liver polymer staining in low, medium and high intensity regions (Z α1-antitrypsin polymer): No effect
total liver polymer load (Z α1-antitrypsin polymer; manual or quantitative scoring): no difference; also recorded: no reduction
EC50 (Z α1-antitrypsin; CHO-TET-ON-Z-A1AT cells, after 6 hours, read-out: pEC50, secretion of Z α1-antitrypsin (converted)): 0.501 µM
increase of secreted levels of Z α1-antitrypsin (Z α1-antitrypsin; CHO-TET-ON-Z-A1AT cells, supernatant after 6 hours, compared to vehicle control): approximately 3 fold
pEC50 (Z α1-antitrypsin; cellular secretion assay, read-out: EC50 measured for secretion of Z α1-antitrypsin): ~6.52
